Reference: patent US20090312521A1 (priority 2004, published 2009)
Values after ≈ are worked out from the molar mass of the structure shown. “Also recorded” adds a separate entry of the source. Non-standard residues stand in square brackets, D forms with d. Residues, ends and D or L forms follow the SMILES beside them. βAla = NCCC(=O)O

Legend:
Salmonella typhimurium = details: murium
[1] = tested on: Salmonella typhimurium Rb; details: murium Rb
Yersinia pestis KIM5 = type: cell-based; details: Yersinia pestis KIM5, Gram −, BHI, 22 ° C.
Bacillus globigii = assay: Additional antimicrobial test (MIC); type: cell-based; details: Gram +, 37 ° C.
[2] = tested on: Yersinia pseudotuberculosis; type: cell-based; details: Gram −, BHI, 35 ° C.
Bacillus thuringiensis = assay: Additional antimicrobial test (MIC); type: cell-based; details: Gram +, BHI, 37 ° C.
E. coli ATCC 11775 = type: cell-based; details: ATCC 11775, 24 h
Description: Lyophilized peptides were dissolved in NB to give a concentration of 400 μM and filtered using 0.22 μm filter discs (Millex GV, Durapore). An overnight culture in NB was adjusted to 5×10^6 CFU/mL and inoculated into the micro titer plate wells (10 μL) containing each 100 μL of a serial 2-fold dilution (200-0.4 μM) of the tested peptide in NB. Plates were incubated while gently shaking at 37 ° C. for 24 h. Next, 80 μL suspension of each well was transported into a flat-bottom 96-well plate (Costar). The absorbance was measured at 600 nm using a μQuant micro plate spectrophotometer (Bio-Tek Instruments). All peptides were measured in quadruplo. The peptide with sequence […] (see Otvos Jr, […]; Otvos, B. I.; Hoffmann, […].; Wade, […].; Bulet, P. Protein Sci. 2000, 9, 742) was used as negative control.

[3] = tested on: Methicillinresistant Staphylococcus aureus (MRSA); assay: Additional antimicrobial test (MIC); type: cell-based; details: Gram +, NB, 37 ° C.
Pseudomonas auruginosa = assay: Additional antimicrobial test (MIC); type: cell-based
[4] = tested on: Salmonella typhimurium Rd1; details: Salmonella typhimurium Rd1, Gram −, NB, 37 ° C.
Bacillus anthracis = type: cell-based; details: Gram +, BHI, 37 ° C.
[5] = tested on: Salmonella typhimurium Re; details: Gram −, NB, 37 ° C.
Vibrio cholerae = assay: Additional antimicrobial test (MIC); type: cell-based; details: Gram −, BHI, 37 ° C.
[6] = tested on: Salmonella typhimurium Rc; details: Gram −, NB, 37 ° C.
[7] = tested on: aminopeptidase and carboxypeptidase; assay: mammalian serum; details: up to four hour; cited from earlier work
mammalian serum = details: up to four hour period; cited from earlier work
[8] = cited from earlier work
Gram-negative bacteria = details: glycosylated form; cited from earlier work
[9] = aminopeptidase and carboxypeptidase cleavage; cited from earlier work

Compound | MIC (E. coli O157: H7) [µM] | MIC (Salmonella give) [µM] | MIC (Klebsiella pneumoniae) [µM] | MIC (Salmonella typhimurium) [µM] | MIC (Salmonella infantis) [µM] | MIC (Shigella sonnei) [µM] | MIC (Salmonella enteritidis) [µM] | MIC [1] [µM] | MIC (Salmonella panama) [µM] | MIC (Salmonella montevideo) [µM] | MIC (Yersinia pestis KIM5) | MIC (Bacillus globigii) | MIC [2] | MIC (Bacillus thuringiensis) | MIC (E. coli ATCC 11775) [µM] | MIC [3] | MIC (Pseudomonas auruginosa) | MIC [4] [µM] | MIC (Bacillus anthracis) | MIC [5] [µM] | further results
CC[C@H](C)[C@H](NC(=O)[C@@H]1CCCN1C(=O)[C@H](CCCNC(=N)N)NC(=O)[C@@H]1CCCN1C(=O)[C@H](Cc1cnc[nH]1)NC(=O)[C@H](CO)NC(=O)[C@@H](NC(=O)[C@@H]1CCCN1C(=O)[C@H](CCCNC(=N)N)NC(=O)[C@@H]1CCCN1C(=O)[C@H](CO)NC(=O)[C@H](Cc1ccc(O)cc1)NC(=O)[C@@H]1CCCN1C(=O)[C@H](CCCNC(=N)N)NC(=O)[C@@H]1CCCN1C(=O)[C@H](CCCCN)NC(=O)CN)[C@@H](C)O)C(=O)N[C@@H](CCCNC(=N)N)C(=O)N[C@H](C(=O)O)C(C)C [Drosocin] (H-GKPRPYSPRPTSHPRPIRV-OH) | 25 (≈ 55 µg/mL) | 25 (≈ 55 µg/mL) | 100 (≈ 220 µg/mL) | 25 (≈ 55 µg/mL) | 50 (≈ 110 µg/mL) | 100 (≈ 220 µg/mL) | 50 (≈ 110 µg/mL) | 50 (≈ 110 µg/mL) | 25 (≈ 55 µg/mL) | 50 (≈ 110 µg/mL) | – | – | – | – | – | – | – | – | – | – | MIC (Enterobacter aerogenes): 100 µM (≈ 220 µg/mL); MIC (Erwinia herbicola): 12.5 µM (≈ 27.5 µg/mL); MIC (Erwinia chrysanthemi): 100 µM (≈ 220 µg/mL)
CC[C@H](C)[C@H](NC(=O)[C@@H]1CCCN1C(=O)[C@H](CCCNC(=N)N)NC(=O)[C@@H]1CCCN1C(=O)[C@H](Cc1c[nH]cn1)NC(=O)[C@H](CO)NC(=O)[C@@H](NC(=O)[C@@H]1CCCN1C(=O)[C@H](CCCNC(=N)N)NC(=O)[C@@H]1CCCN1C(=O)[C@@H](NC(=O)[C@H](Cc1ccc(O)cc1)NC(=O)[C@@H]1CCCN1C(=O)[C@H](CCCNC(=N)N)NC(=O)[C@@H]1CCCN1C(=O)[C@H](CCCCN)NC(=O)CN)[C@@H](C)O)[C@@H](C)O)C(=O)N[C@@H](CCCNC(=N)N)C(=O)N[C@H](C(=O)O)C(C)C [Peptide 4, GKPRP YTPRP TSHPR PIRV] (H-GKPRPYTPRPTSHPRPIRV-OH; N-terminus assumed) | 12.5 (≈ 27.7 µg/mL) | 25 (≈ 55.3 µg/mL) | 100 (≈ 221 µg/mL) | 12.5 (≈ 27.7 µg/mL) | 25 (≈ 55.3 µg/mL) | 100 (≈ 221 µg/mL) | 12.5 (≈ 27.7 µg/mL) | 12.5 (≈ 27.7 µg/mL) | 12.5 (≈ 27.7 µg/mL) | 12.5 (≈ 27.7 µg/mL) | NI at ≦100 μM | NI at ≦100 μM | NI at ≦100 μM | NI at ≦100 μM | 1.6 (≈ 3.54 µg/mL) | NI at ≦100 μM | NI at ≦100 μM | 12.5 (≈ 27.7 µg/mL) | NI at ≦100 μM | 3.38 (≈ 7.48 µg/mL) | MIC (Vibrio cholerae): NI at ≦100 μM; MIC [6]: 100 µM (≈ 221 µg/mL)
CC[C@H](C)[C@H](NC(=O)[C@@H]1CCCN1C(=O)[C@H](CCCNC(=N)N)NC(=O)[C@@H]1CCCN1C(=O)[C@H](Cc1c[nH]cn1)NC(=O)[C@H](CO)NC(=O)[C@@H](NC(=O)[C@@H]1CCCN1C(=O)[C@H](CCCNC(=N)N)NC(=O)[C@@H]1CCCN1C(=O)[C@@H](NC(=O)[C@H](Cc1ccc(O)cc1)NC(=O)[C@@H]1CCCN1C(=O)[C@H](CCCNC(=N)N)NC(=O)[C@@H]1CCCN1C(=O)[C@H](CCCCN)NC(=O)CCN)[C@@H](C)O)[C@@H](C)O)C(=O)N[C@@H](CCCNC(=N)N)C(=O)N[C@H](C(=O)O)C(C)C [Peptide 14, βAlaKPRP YTPRP TSHPR PIRV] (H-[βAla]KPRPYTPRPTSHPRPIRV-OH; N-terminus assumed) | 25 (≈ 55.7 µg/mL) | 100 (≈ 223 µg/mL) | 100 (≈ 223 µg/mL) | 50 (≈ 111 µg/mL) | 25 (≈ 55.7 µg/mL) | 100 (≈ 223 µg/mL) | 12.5 (≈ 27.8 µg/mL) | 12.5 (≈ 27.8 µg/mL) | 25 (≈ 55.7 µg/mL) | 12.5 (≈ 27.8 µg/mL) | NI at ≦100 μM | NI at ≦100 μM | NI at ≦100 μM | NI at ≦100 μM | 3.1 (≈ 6.9 µg/mL) | NI at ≦100 μM | NI at ≦100 μM | 12.5 (≈ 27.8 µg/mL) | NI at ≦100 μM | 3.38 (≈ 7.53 µg/mL) | MIC (Vibrio cholerae): NI at ≦100 μM; MIC [6]: 100 µM (≈ 223 µg/mL)
Gly-Lys-Pro-Arg-Pro-Tyr-Ser*-Pro-Arg-Pro-Thr-Ser-His-Pro-Arg-Pro-Ile-Arg-Val | – | – | – | – | – | – | – | – | – | – | – | – | – | – | – | – | – | – | – | – | fragment found [7]: metabolites lacking five amino terminal residues; also recorded: metabolites lacking two carboxy terminal residues; fragment found (mammalian serum): metabolite lacking five amino terminal residues; also recorded: metabolite lacking two carboxy terminal residues
Gly-Lys-Pro-Arg-Pro-Tyr-Ser*-Pro-Arg-Pro-Thr-Ser-His-Pro-Arg-Pro-Ile-Arg-Val [native, glycosylated peptide] | – | – | – | – | – | – | – | – | – | – | – | – | – | – | – | – | – | – | – | – | antibacterial activity when injected into mice [8]: no antibacterial activity; activity against Gram-negative bacteria (Gram-negative bacteria): moderately active; time needed to kill bacteria in vivo (Gram-negative bacteria): 24 h; degradation in mammalian serum [9]: completely degraded within a four hour period
